# In patent US20110184018A1, “METHOD FOR TREATING PERIPHERAL NEUROPATHIC PAIN” (LOHOCLA RESEARCH CORPORATION, priority 2005, published 2011):
# Where two headings read alike, the source gives them in different places.
# Key:
# [1] = tested on: rats following spinal nerve ligation (SNL); experiment: Thermal and tactile hyperalgesia after spinal nerve ligation (SNL); type: in vivo, rat
# Method: FIG. 7 illustrates the scheme for testing the DCUK ethyl ester in neuropathic pain models. In FIG. 7 graphs showing attenuation of tactile (Panel A) and thermal (Panel B) hyperalgesia in animals following spinal nerve ligation (SNL) are provided. DCUK-OEt (30 or 100 mg/kg) was administered at the time indicated by the arrow. Hyperalgesic responses were followed for the next 180 minutes. The shaded area represents the area of hyperalgesia produced by SNL. BL on the X-axis represents the baseline response of animals prior to spinal nerve ligation. SNL represents the response of the animals after spinal nerve ligation and prior to receiving the DCUKA ethyl ester.
# Spinal Nerve Ligation and Sham Surgery. Anesthesia was maintained with 0.5% halothane in oxygen. After surgical preparation of the rats, a 2-cm paraspinal incision was made at the level L4-S2. The unilateral L5 and L6 spinal nerves were exposed and tightly ligated distal to the dorsal root ganglia by using 4-0 silk suture. The incisions were closed, and animals were allowed to recover. Sham-operated control rats were prepared in an identical manner without L5/L6 nerve ligation. […] Separate groups of animals were used in tests for thermal and tactile hypersensitivity.
# Tactile Hypersensitivity Test and Evaluation. Animals were placed in a suspended plastic chamber with a wire mesh platform and allowed to habituate for 15 minutes. Tactile hypersensitivity was determined by measuring paw withdrawal threshold in response to probing the plantar surface of the left hind paw with a series of 8 calibrated von Frey filaments (0.40, 0.70, 1.20, 2.00, 3.63, 5.50, 8.50, and 15.1 g). Measurements were taken before surgery and before and after administration of drug or vehicle. Withdrawal threshold was determined by sequentially increasing and decreasing stimulus intensity (“up and down” method), analyzed by using a Dixon nonparametric test, and expressed as the paw withdrawal threshold in gram force values. All studies were carried out 7 days after spinal nerve ligation (SNL).
# Thermal Hypersensitivity Test (Radiant Heat Paw Withdrawal Test). Rats were placed in clear plastic chambers on a glass surface and were habituated for 15 minutes before testing. Thermal sensitivity was measured by using paw withdrawal latency to a radiant heat stimulus. A radiant heat source (i.e., infrared) was activated with a timer and focused onto the plantar surface of the left hind paw of a rat, and the latency to paw withdrawal was measured. A motion detector that halted both lamp and timer when the paw was withdrawn determined paw withdrawal latency. The latencies were measured before surgery and before and after drug or vehicle administration. A maximum cutoff of 33 seconds was used to prevent tissue damage. […]
# [2] = biological target: voltage sensitive sodium channel (neurotoxin receptor Site 2); experiment: [3H]BTX binding assay; conditions: rat cortical synaptosomes
# [3] = biological target: rat brain type IIA Na+ channel (Nav1.2) (Rattus norvegicus, UniProt P04775); experiment: Whole-cell patch clamp recordings of Na+ currents in CNaIIA-1 cells; type: cell-based; conditions: fit of shift of inactivation curve
# [4] = tested on: primary cultures of rat cerebellar granule cells; experiment: Glutamate-induced excitotoxic cell death; type: cell-based; conditions: 100 micromolar glutamate
# Method: Glutamate Excitotoxicity. Primary cultures of cerebellar granule cells were prepared from 7-day-old Sprague-Dawley rats. The cultures were maintained in plates containing 24 wells (volume of 1 mL/well). Culture density was about 1.5×10^6 cells/mL. Cell viability was assayed after 7 or 8 days in culture by the production of fluorescein, formed from fluorescein diacetate by esterases present in living cells. Cells were washed with magnesium ion-free Locke's buffer, and then exposed to 100 μM glutamate alone, glutamate and 10 μM glycine, or each of these conditions in the presence of 100 μM DCUKA or 100 μM DCUK-OMe at 25° C. for 30 minutes. DCUKA and DCUK-OMe were added in 2-μl aliquots to yield a final DMSO concentration of 0.2%. […] Fluorescence of each well was measured on a Perkin-Elmer HTS7000 plate reader (excitation 485 nm; emission 535 nm; 16 measurements per well) with optimal gain settings. For each 24-well plate, the fluorescence of one control culture well (i.e., not exposed to glutamate) was automatically set to the highest fluorescence value, and fluorescence values were determined in all other wells with the same gain settings. Fluorescence measurements in all 24 wells were normalized to the control culture and expressed as a percentage of this value. Data are expressed as percentage of cell death (100-percentage of control). […]
# [5] = Solubility limit in aqueous assay buffers; type: physicochemical; conditions: aqueous assay buffers (incubation or bath solutions), aqueous buffer, kinetic from dmso stock, DMSO 0.2 to 1%, read-out: concentrations that could not be tested due to limited solubility in aqueous buffers
# Method: Drugs. For all in vitro assays, stock solutions of DCUKA or DCUK-OMe were prepared fresh daily in dimethylsulfoxide (DMSO) then diluted into the incubation or bath solutions with sonication to the desired concentrations for experiments. Due to their limited solubility in aqueous buffers, DCUKA concentrations >300 μM and DCUK-OMe concentrations >100 μM could not be tested. In those assays where high ionic strength buffers were used, i.e., [^3H]batrachiotoxin (BTX) binding in depolarized synaptosomes, concentrations >50 μM could not be tested. The final concentration of DMSO in the assays ranged from 0.2 to 1%. In all assays, drug effects were compared with effects measured in the presence of the identical concentration of DMSO without drug.
# rat brain type IIA Na+ channel (Nav1.2), sequence (P04775 whole entry): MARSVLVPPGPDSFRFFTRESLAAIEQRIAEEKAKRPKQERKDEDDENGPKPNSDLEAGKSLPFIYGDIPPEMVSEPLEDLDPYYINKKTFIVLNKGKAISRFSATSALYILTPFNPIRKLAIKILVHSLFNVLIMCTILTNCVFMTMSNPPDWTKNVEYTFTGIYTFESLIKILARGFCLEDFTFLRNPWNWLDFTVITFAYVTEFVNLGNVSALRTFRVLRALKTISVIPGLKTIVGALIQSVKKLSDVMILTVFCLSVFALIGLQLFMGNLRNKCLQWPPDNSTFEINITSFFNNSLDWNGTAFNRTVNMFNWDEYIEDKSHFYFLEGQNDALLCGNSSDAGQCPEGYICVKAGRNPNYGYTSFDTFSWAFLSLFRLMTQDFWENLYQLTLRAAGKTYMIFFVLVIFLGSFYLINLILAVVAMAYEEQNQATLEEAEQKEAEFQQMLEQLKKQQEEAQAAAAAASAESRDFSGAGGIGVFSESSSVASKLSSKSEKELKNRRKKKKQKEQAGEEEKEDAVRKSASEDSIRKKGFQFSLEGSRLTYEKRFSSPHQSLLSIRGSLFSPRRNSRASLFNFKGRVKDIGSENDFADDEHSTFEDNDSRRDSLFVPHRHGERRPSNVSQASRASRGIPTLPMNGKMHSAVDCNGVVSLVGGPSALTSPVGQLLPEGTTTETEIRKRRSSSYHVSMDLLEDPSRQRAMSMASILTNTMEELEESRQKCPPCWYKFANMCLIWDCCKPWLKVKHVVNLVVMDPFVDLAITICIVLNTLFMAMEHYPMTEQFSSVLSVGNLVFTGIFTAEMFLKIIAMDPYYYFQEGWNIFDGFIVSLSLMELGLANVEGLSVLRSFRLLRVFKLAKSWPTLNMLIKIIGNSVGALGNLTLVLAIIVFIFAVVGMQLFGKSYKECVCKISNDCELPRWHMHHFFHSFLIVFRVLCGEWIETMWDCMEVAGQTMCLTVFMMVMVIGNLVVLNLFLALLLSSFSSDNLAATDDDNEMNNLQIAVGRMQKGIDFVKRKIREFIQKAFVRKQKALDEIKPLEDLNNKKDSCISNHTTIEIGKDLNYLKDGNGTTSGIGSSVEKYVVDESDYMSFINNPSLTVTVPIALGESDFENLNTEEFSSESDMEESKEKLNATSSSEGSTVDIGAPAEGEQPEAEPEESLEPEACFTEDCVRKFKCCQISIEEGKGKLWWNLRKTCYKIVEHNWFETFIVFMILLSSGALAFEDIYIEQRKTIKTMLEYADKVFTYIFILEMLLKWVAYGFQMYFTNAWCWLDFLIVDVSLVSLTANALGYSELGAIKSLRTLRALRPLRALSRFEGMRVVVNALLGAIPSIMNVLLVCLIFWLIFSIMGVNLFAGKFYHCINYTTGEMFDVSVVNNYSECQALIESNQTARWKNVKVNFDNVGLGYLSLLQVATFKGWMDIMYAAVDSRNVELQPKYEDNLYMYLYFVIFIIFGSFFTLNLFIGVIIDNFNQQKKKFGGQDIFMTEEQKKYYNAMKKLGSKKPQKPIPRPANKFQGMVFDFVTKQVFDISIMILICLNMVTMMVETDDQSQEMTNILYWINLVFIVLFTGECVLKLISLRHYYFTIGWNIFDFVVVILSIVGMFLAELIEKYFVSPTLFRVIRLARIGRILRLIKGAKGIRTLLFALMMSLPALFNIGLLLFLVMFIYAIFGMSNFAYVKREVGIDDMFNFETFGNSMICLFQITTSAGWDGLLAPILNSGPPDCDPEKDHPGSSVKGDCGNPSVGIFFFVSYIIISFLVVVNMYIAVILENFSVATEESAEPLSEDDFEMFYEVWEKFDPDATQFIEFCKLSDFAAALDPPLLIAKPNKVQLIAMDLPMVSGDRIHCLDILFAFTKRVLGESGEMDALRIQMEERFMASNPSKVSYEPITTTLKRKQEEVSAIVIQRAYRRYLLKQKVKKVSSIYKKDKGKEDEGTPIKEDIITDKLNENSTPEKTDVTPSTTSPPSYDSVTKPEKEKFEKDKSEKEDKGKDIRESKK
SMILES,normalization of thermal versus tactile hyperalgesia ([1]; 30 or 100 mg/kg),"inhibition of thermal hyperalgesia ([1]; i.p., 100 mg/kg)","reduction of thermal hyperalgesia ([1]; oral, 200 mg/kg emulsion)","inhibition of thermal hyperalgesia ([1]; p.o., about 150 mg/kg)","IC50 ([2]; depolarizing conditions (135 mM KCl), read-out: IC50 [3H]BTX binding under depolarizing conditions (value in parentheses))","IC50 ([2]; none = no displacement at 100 μM, read-out: IC50 [3H]BTX binding)","Ki ([3]; read-out: KI, dissociation constant for inactivated states)","Kd ([3]; read-out: KR, dissociation constant for the resting state)",protection from glutamate-induced damage ([4]; 100 μM compound),reduction of cell death ([4]; 10 micromolar compound),solubility [5]
"CCOC(=O)c1cc(NC(=O)N(c2ccccc2)c2ccccc2)c2c(Cl)cc(Cl)cc2n1 [DCUK-OEt, N,N-diphenyl-4-ureido-5,7-dichloro-2-carboxy quinoline ethyl ester]",thermal hyperalgesia is normalized by administration of DCUKA ethyl ester to a greater extent than tactile hyperalgesia,75%,about 70%,45%,,,,,,,
"O=C(O)c1cc(NC(=O)N(c2ccccc2)c2ccccc2)c2c(Cl)cc(Cl)cc2n1 [DCUKA, N,N-diphenyl-4-ureido-5,7-dichloro-2-carboxyquinoline]",,,,,30 µM,76 µM,9.8 µM,244 µM,completely protected,more than 50%,> 300 µM
